According to publication PMC10578352, “Identification of a Protein Arginine Methyltransferase 7 (PRMT7)/Protein Arginine Methyltransferase 9 (PRMT9) Inhibitor” (Journal of Medicinal Chemistry, 2023):

What was measured:
GST-HsPRMT9 = biological target: T1, GST-HsPRMT9 (Homo sapiens, UniProt Q6P2P2); assay: Radioisotope-based assay (SDS-PAGE, fluorography, densitometry), HsPRMT9; assay type: biochemical
T1 construct: made in house; host or cells: E. coli
T1 sequence (Q6P2P2 1-845): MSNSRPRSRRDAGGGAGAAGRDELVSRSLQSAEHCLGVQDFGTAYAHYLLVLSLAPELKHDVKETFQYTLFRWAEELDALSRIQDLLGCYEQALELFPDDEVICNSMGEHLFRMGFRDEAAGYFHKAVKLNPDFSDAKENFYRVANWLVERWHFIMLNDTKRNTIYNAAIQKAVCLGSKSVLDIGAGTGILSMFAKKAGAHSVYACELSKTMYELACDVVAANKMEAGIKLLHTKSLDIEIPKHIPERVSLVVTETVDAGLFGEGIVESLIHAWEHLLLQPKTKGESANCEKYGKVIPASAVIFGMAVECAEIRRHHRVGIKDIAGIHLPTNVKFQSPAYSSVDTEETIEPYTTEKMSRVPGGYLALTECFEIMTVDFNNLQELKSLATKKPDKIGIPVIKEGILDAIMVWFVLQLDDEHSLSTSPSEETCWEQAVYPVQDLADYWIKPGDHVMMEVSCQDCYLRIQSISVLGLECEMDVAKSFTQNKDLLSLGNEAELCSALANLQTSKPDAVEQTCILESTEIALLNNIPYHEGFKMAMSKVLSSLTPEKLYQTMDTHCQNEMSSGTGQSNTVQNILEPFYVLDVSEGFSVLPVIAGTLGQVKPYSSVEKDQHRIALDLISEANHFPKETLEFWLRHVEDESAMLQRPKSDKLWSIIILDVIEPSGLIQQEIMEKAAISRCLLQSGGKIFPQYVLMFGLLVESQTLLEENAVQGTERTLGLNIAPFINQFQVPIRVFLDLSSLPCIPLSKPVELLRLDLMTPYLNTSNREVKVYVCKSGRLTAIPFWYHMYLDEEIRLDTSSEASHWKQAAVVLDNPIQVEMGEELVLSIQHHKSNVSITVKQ
Protocol: (§1) Based on these outcomes, we resolved to explore the effect on the capability to inhibit PRMT9 enzymatic activity of further reduction of the distance between the pharmacophoric moieties. […] After the experiment was repeated with 100, 250, and 500 μM concentrations of each inhibitor, half inhibition was observed only at a concentration of roughly 250 μM (Figure 4d).
(§2) […]. The experiments were performed as reported in the Experimental procedures section. GST-HsPRMT9 (a) and GST-HsPRMT7 (b) were incubated with human GST-SF3B2 (401–550) peptide or recombinant HsH2B, respectively (1 μg of enzyme, 5 μg of substrate), 0.14 μM [^3H]SAM, and the indicated concentrations of tested compounds at the corresponding optimal reaction temperature (37 °C for HsPRMT9, 15 °C for HsPRMT7). C. elegans GST-tagged enzymes PRMT9 (c) and PRMT7 (d) were incubated with GST-CeSFTB-2 (99–248) fragment or recombinant HsH2B, respectively (1 μg of enzyme, 5 μg of substrate), 0.14 μM [^3H]SAM, and the indicated concentrations of tested compounds at the corresponding optimal reaction temperature (25 °C for CePRMT9, 15 °C for CePRMT7). After SDS-PAGE, the gels were treated as previously described[48] and densitometry analysis was done using ImageJ software, and data was plotted as normalized activity to the no inhibitor controls.
(§3) Human PRMT9, C. elegans PRMT9, human PRMT7, and C. elegans PRMT7 plasmids were sequenced, expressed in E. coli as GST-fusion proteins, and purified as previously described.[48] Substrates were also sequenced and purified as described [human GST-SF3B2 (401–550);[13]C. elegans SFTB-2;[48] human histone H2B (New England Biolabs, M2505S)]. Xenopus laevis histone H2B was expressed in E. coli and purified similarly to what was previously reported by Luger et al.[72]
(§4) Reactions consisting of approximately 1 μg of enzyme (human or C. elegans GST-tagged enzymes PRMT9 and PRMT7), reacted with approximately 5 μg of substrate [for human PRMT9, human GST-SF3B2 401–550 fragment; C. elegans PRMT9 with C. elegans GST-SFTB-2 (99–248) fragment, or recombinant human histone H2B from New England Biolabs (M2505S)], were incubated for the indicated time in reaction buffer {50 mM potassium HEPES buffer, 10 mM NaCl, 1 mM dithiothreitol (DTT), pH 8.0 with 0.7 μM S-adenosyl-L-[methyl-^3H]methionine (^3H-AdoMet, PerkinElmer Life Sciences, 82.7 Ci/mmol, 0.55 mCi/mL in 10 mM H2SO4/EtOH [9:1 (v/v)])} in a final reaction volume of 60 μL. Each reaction was incubated at the corresponding optimal reaction temperature (37 °C for human PRMT9, 25 °C for C. elegans PRMT9, and 15 °C for C. elegans and human PRMT7 enzymes. MTA was dissolved in water, and a wavelength scan was taken to determine the final concentration using the extinction coefficient. The final concentrations used are indicated in the figure legends. […]. EML734, EML736, and EML709 were also dissolved in DMSO, and further dilutions were made in DMSO for the working stocks. For controls, no inhibitor reactions were created by the addition of the respective solvent (water for MTA and DMSO for EPZ015666 and EML inhibitors).
(§5) After the reaction incubations with the various concentrations of inhibitors, the reactions were quenched by adding 0.2 volume of 5× SDS sample loading buffer, and subsequently, the reactions were run on a 12.6% polyacrylamide Tris gel. To collect the radioactive signal, the gels were then treated in the same way as previously described.[48]
(§6) After various exposures were collected to ensure linear detection, densitometry analysis was done using ImageJ software, and data were plotted as normalized activity to the no inhibitor controls.

GST-HsPRMT7 = biological target: T2, GST-HsPRMT7 (Homo sapiens, UniProt Q9NVM4); assay: Radioisotope-based assay (SDS-PAGE, fluorography, densitometry), HsPRMT7; assay type: biochemical; conditions: substrate HsH2B, 15 °C, read-out: % HsPRMT7 residual activity
T2 construct: made in house; host or cells: E. coli
T2 sequence (Q9NVM4 1-692): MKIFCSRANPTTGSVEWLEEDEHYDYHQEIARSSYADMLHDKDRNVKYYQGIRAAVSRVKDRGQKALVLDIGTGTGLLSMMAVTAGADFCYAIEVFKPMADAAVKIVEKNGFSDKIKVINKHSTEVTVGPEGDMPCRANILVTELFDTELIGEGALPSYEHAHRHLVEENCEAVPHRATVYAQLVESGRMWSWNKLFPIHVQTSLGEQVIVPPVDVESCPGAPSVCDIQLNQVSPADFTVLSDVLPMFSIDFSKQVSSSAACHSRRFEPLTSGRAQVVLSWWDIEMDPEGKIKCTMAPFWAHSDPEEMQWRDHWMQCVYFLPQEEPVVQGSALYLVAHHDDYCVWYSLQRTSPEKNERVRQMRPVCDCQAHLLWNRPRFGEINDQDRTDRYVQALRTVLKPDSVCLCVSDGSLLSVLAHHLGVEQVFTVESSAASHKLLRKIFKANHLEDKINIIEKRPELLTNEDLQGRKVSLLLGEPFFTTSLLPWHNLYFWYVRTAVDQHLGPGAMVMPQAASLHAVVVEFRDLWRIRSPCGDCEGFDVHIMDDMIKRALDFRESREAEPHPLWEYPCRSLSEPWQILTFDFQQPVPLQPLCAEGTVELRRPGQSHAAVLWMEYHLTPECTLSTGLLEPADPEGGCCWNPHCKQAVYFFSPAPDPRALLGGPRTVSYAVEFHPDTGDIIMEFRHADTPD
Protocol: as §1, §2, §3, §4
as §5, with “described.[48] […]” for “described.[48]”

CePRMT9 = assay: Radioisotope-based assay (SDS-PAGE, fluorography, densitometry), CePRMT9; assay type: biochemical, Caenorhabditis elegans; conditions: substrate GST-CeSFTB-2 (99–248), 25 °C
Protocol: as §1, §2, §3, §4, §5, §6

CePRMT7 = biological target: T3, CePRMT7 (Caenorhabditis elegans, UniProt Q9XW42); assay: Radioisotope-based assay (SDS-PAGE, fluorography, densitometry), CePRMT7; assay type: biochemical; conditions: 100 uM; substrate HsH2B, 15 °C; read-out: % CePRMT7 residual activity
T3 construct: made in house; host or cells: E. coli
T3 sequence (Q9XW42 whole entry): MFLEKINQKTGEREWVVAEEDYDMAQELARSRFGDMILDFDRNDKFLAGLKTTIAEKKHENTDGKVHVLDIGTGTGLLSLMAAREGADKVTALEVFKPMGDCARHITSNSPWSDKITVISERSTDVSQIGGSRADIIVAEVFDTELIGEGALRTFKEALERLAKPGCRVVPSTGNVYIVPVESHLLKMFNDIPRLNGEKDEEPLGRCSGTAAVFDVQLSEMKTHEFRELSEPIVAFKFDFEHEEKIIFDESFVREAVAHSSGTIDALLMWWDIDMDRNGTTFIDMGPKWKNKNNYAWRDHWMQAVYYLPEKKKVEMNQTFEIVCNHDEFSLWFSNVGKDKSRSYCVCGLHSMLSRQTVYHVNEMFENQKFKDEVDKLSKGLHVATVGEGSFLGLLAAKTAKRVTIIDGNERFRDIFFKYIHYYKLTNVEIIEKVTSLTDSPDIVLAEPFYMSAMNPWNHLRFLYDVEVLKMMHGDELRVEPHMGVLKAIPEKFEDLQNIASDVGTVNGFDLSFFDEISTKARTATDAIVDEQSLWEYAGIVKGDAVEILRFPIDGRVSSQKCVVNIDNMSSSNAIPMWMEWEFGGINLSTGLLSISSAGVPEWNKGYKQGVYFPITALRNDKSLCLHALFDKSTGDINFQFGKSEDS
Protocol: as §1, §2, §3, §4, §5, §6

ASH1L/KMT2H = biological target: T4, ASH1L/KMT2H (Homo sapiens, UniProt Q9NR48); assay: HotSpot KMT activity assay, ASH1L; assay type: biochemical
T4 construct: the human recombinant ASH1L (residues 2046–2330, with an N-terminal His-tag); His (N); purchased Reaction Biology Corporation
Text: ; MW = 35.4 kDa; Genbank Accession # NM_018489), or the human recombinant EZH2-containing five-member polycomb repressive complex 2 (including EZH2 residues 2–746, AEBP2 2–517, EED 2–441, RbAp48 2–425, SUZ12 2–739; all full-length; with N-terminal Flag-tag on EED and N-terminal His-tag on all others; MW = 333.8 kDa; Genbank Accession # NM_001203247, NM_001114176, NM_003797, NM_005610, NM_015355), or the human recombinant G9a (residues 913–1193, C-terminus; with an N-terminal His-tag; MW = 34.6 kDa; Genbank Accession # NM_006709.3), or the human recombinant MLL1 complex (including MLL1 residues 3745–3969, C-terminus, WDR5 22–334, C-terminus, RbBP5 1–538, C-terminus, ASH2L 2–534, C-terminus, DPY-30 1–99, C-terminus; N-terminal His-tag on all subunits; MW = 212.0 kDa; Genbank Accession # NM_005933, NM_017588, NM_005057, NM_001105214, NM_0325742), or the human recombinant SET7/9 (residues 2–366, C-terminus; with a N-terminal GST-tag and a C-terminal His-tag; MW = 68.5 kDa; Genbank Accession # NM_030648), or the human recombinant SMYD3 (residues 2–428, C-terminus; C-terminal His-tag; MW = 50.1 kDa; Genbank Accession # NM_001167740), or the human recombinant SUV39H2 (residues 46–410, C-terminus; N-terminal fusion protein with a C-terminal His-tag; MW = 98.8 kDa; GenBank Accession No. NM_001193424), or the human recombinant DOT1L (residues 1–416; N-terminal GST-tag; MW = 80.0 kDa; Genbank Accession # NM_032482) was added to a solution of the proper substrate (oligo nucleosomes for ASH1L, MLL1 complex, and DOT1L, final concentration 0.05 mg/mL; core histone for EZH2 complex and SET7/9, final concentration 0.05 mg/mL; histone H3 for SUV39H2, final concentration 5 μM; histone H3 1–21 for G9a, final concentration 2.5 μM) in freshly prepared reaction buffer (50 mM Tris-HCl (pH 8.5), 5 mM MgCl2, 50 mM NaCl, 1 mM DTT, 1 mM PMSF, 1% DMSO) and gently mixed. […] After incubation for 60 min at 30 °C, the reaction mixture was delivered to filter paper for detection (as assessed by scintillation). […] Values obtained for each compound are mean ± SD determined for two separate experiments.

[1] = substrate GST-SF3B2 (401–550), 37 °C, read-out: % HsPRMT9 residual activity

| remaining activity at 100 µM (GST-HsPRMT9; [1]) [%] | remaining activity at 250 µM (GST-HsPRMT9; 250 uM, substrate GST-SF3B2 (401–550), 37 °C, read-out: % HsPRMT9 residual activity) [%] | remaining activity at 500 µM (GST-HsPRMT9; 500 uM, substrate GST-SF3B2 (401–550), 37 °C, read-out: % HsPRMT9 residual activity) [%] | inhibition of HsPRMT9 (in words) (GST-HsPRMT9; up to 500 μM) | remaining activity at 100 µM (GST-HsPRMT7) [%] | remaining activity at 100 µM (CePRMT7) [%] | inhibition of HsPRMT9 (in words) (GST-HsPRMT9; 100 μM) | SMILES | % CePRMT9 residual activity (CePRMT9; 100 uM) [%] | % CePRMT9 residual activity (CePRMT9; 250 uM) [%] | % CePRMT9 residual activity (CePRMT9; 500 uM) [%] | IC50 (ASH1L/KMT2H) [nM] |
| --- | --- | --- | --- | --- | --- | --- | --- | --- | --- | --- | --- |
| 99.8 | 105 | 98 | inactive | 120 | 131 |  | O=C(NC[C@H](O)CN1CCc2ccccc2C1)c1cc(NC2COC2)ncn1 [EPZ015666, reference compound] | 139.23 | 132.20 | 105.26 |  |
| 26 |  |  |  | 46.8 | 130 | good inhibition only at 100 μM | CSC[C@H]1O[C@@H](n2cnc3c(N)ncnc32)[C@H](O)[C@@H]1O [MTA, 5′-Deoxy-5′-(methylthio)adenosine, reference compound] | 23.57 |  |  |  |
|  |  |  |  |  |  |  | CN1C(=O)[C@@]23C[C@]4([C@]56C[C@@]78SS[C@@](CO)(C(=O)N7[C@H]5Nc5ccccc56)N(C)C8=O)c5ccccc5N[C@@H]4N2C(=O)[C@]1(CO)SS3 [chaetocin, reference compound] |  |  |  | 25 |
